Measured values: patent US12662451B2, “Chemical compounds and uses thereof” (GLAXOSMITHKLINE INTELLECTUAL PROPERTY (NO.4) LIMITED, priority 2023, dated 2026)
Where a name gives a salt, the structure may show the parent alone.

target: T1, recombinant full-length WRN protein (1-1432) (Homo sapiens, UniProt Q14191); assay: WRN unwinding activity, fluorogenic 384-well assay (Example A); type: biochemical; conditions: WRN unwinding activity, 4 hr; Table 2; read-out: 4 hr UNW pIC50 (converted)
T1 construct: recombinant full-length WRN protein (1-1432)
Experimental: Functional WRN unwinding activity can be measured using a fluorogenic plate based 384 well assay configured to measure the separation of labeled double stranded DNA substrate. Compounds were dosed out in neat DMSO with a 1:3 serial dilution scheme. 100 nL of compound was stamped into Greiner low volume black assay plates (Greiner Cat #784076) using the Echo Acoustic Dispenser to generate assay ready plates. All solutions were prepared in assay buffer (25 mM TRIS (pH8.0), 5 mM NaCl, 2 mM MgCl2, 1 mM DTT, 0.05% BSA) for this 10 μL low volume reaction. To prepare the solutions, a 2×WRN Enzyme cocktail was made containing 200 pM of recombinant full-length WRN protein (1-1432). A 2× Substrate cocktail was made to consist of both 200 μM ATP (any ultrapure ATP sample) and 12 nM of the fluorescent quenched labeled double stranded DNA oligomer (IDT Custom synthesis; 5′-5IABkFQ (SEQ ID NO. 1)/GCACTGGCCGTCGTTTTACGGTCGTGACT-3′ (SEQ ID NO. 2): 5′-TTTTTTACTTAACGACGGCCAGTGC (SEQ ID NO. 3)/36-TAMTSP/-3′ (SEQ ID NO. 4)). To start the reaction, 5 μL of assay buffer was added to a single column to serve as the low control. Following this, 5 μL of 2×WRN Enzyme was added in all wells except the buffer low control wells. The reaction plate was covered and incubated at ambient temperature for 4 hours to allow for time dependent inhibition if it existed. After 4 hours, the addition of 5 μL of 2×-ATP/DNA substrate cocktail was added across all wells of the assay plate. This initiated the reaction, as the plate was incubated at ambient temperature for 60 minutes for the unwinding reaction to occur. A 10 mM EDTA solution was prepared and added at 5 μL across the entire plate after 60 minutes to quench the samples for an endpoint measurement. Fluorescent intensity was measured using excitation and emission wavelengths of 525 nm and 598 nm, respectively. High florescent intensity (DMSO with buffer) represents full inhibition of unwinding activity and low florescent intensity (DMSO with enzyme) represents no inhibition of unwinding activity. The potency of the compounds was determined using a four-parameter inhibition model to generate pIC50, Hill Slope, maximum inhibition (see Table 2).

T1 sequence (Q14191 whole entry): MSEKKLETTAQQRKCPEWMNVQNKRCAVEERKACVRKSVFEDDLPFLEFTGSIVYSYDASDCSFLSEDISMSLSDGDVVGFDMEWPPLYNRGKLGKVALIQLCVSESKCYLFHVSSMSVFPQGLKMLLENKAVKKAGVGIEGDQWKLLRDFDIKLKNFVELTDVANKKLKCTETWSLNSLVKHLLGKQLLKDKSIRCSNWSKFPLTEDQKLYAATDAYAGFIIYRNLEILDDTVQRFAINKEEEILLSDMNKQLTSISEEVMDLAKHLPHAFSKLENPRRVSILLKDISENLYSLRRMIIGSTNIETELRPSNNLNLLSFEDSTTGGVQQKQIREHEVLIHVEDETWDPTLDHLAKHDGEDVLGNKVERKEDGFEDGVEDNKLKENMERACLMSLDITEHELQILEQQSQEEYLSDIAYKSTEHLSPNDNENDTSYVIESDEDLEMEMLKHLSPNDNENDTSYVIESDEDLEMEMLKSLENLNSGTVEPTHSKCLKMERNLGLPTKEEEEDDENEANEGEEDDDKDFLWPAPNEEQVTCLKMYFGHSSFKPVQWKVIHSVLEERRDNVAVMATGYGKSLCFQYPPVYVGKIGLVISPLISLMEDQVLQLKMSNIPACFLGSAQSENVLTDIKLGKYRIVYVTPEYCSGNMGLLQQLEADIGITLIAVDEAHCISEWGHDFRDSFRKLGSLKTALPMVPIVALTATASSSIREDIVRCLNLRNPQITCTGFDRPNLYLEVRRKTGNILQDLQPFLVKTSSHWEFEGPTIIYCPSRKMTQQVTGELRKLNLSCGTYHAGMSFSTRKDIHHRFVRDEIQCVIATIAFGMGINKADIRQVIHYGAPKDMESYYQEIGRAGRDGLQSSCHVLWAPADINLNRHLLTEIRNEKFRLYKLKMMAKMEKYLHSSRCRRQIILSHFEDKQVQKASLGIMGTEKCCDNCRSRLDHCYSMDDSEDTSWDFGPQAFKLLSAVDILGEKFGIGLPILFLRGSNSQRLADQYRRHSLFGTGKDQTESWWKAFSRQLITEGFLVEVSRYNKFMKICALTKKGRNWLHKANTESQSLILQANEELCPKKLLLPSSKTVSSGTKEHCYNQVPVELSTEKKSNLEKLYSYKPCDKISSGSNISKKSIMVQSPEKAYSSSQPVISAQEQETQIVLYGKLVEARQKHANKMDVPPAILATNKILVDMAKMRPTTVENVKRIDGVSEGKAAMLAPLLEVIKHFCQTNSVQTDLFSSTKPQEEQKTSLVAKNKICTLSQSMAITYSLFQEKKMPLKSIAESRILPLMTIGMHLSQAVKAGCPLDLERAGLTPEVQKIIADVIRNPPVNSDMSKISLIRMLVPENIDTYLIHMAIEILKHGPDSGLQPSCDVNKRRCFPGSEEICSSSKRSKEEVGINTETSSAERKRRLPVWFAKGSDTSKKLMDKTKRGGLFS

Row | IC50 | Structure (SMILES)
1 | 251 nM | Cc1nc2cc(S(=O)(=O)N(C)c3ccc([C@H]4C[C@@H]5COC[C@@H]5[C@@H](C(=O)Nc5ccc(C(F)(F)F)cc5F)[C@@H]4C(=O)O)cc3)ccc2n1C (stereo in doubt) [Example 393, rel-(3aR,4S,5S,6R,7aR)-4-((2-fluoro-4-(trifluoromethyl)phenyl)carbamoyl)-6-(4-((N,1,2-trimethyl-1H-benzo[d]imidazole)-5-sulfonamido)phenyl)octahydroisobenzofuran-5-carboxylic acid]
2 | 251 nM | CN[C@@H]1C[C@H](C(=O)Nc2ccc(C(F)(F)F)cc2F)[C@@H](C(=O)O)[C@H](c2ccc(N(C)S(=O)(=O)c3ccc4c(c3)nc(C)n4C)cc2)C1 (single isomer, unassigned) [Example 257]
3 | 12600 nM | Cc1nc2cc(S(=O)(=O)N(C)c3ccc([C@@H]4C[C@@H](N5CC6(F)CC5C6)C[C@H](C(=O)Nc5ccc(C(F)(F)F)cc5F)[C@H]4C(=O)O)cc3)ccc2n1C (relative stereo) [Example 399, rel-(1R,2R,4S,6S)-2-((2-fluoro-4-(trifluoromethyl)phenyl)carbamoyl)-4-(4-fluoro-2-azabicyclo[2.1.1]hexan-2-yl)-6-(4-((N,1,2-trimethyl-1H-benzo[d]imidazole)-5-sulfonamido)phenyl)cyclohexane-1-carboxylic acid]
4 | 1.58 nM | CCN[C@@H]1CC[C@@H](C(=O)Nc2ccc(C(C)C)cc2)[C@H](C(=O)O)[C@H]1c1ccc(N(C)S(=O)(=O)c2ccc3c(c2)nc(C)n3C)cc1 (racemic) [Example 249, rac-(1R,2S,3R,6R)-3-(ethylamino)-6-((4-isopropylphenyl)carbamoyl)-2-(4-((N,1,2-trimethyl-1H-benzo[d]imidazole)-5-sulfonamido)phenyl)cyclohexane-1-carboxylic acid]
5 | 3.98 nM | Cc1nc2cc(S(=O)(=O)N(C)c3ccc([C@H]4C[C@]5(CCCO5)C[C@@H](C(=O)Nc5ccc(C(F)(F)F)cc5F)[C@@H]4C(=O)O)cc3)ccc2n1C (stereo in doubt) [Example 388, rel-(5R,7R,8R,9S)-7-((2-fluoro-4-(trifluoromethyl)phenyl)carbamoyl)-9-(4-((N,1,2-trimethyl-1H-benzo[d]imidazole)-5-sulfonamido)phenyl)-1-oxaspiro[4.5]decane-8-carboxylic acid]

The remaining lines, values behind:

Row | Structure (SMILES) | IC50
6 | Cc1nc2cc(S(=O)(=O)N(C)c3ccc([C@H]4CCC[C@@H](C(=O)N[C@H]5CCCC[C@@H]5C)[C@@H]4C(=O)O)cc3)ccc2n1C [Example 197, (1R,2R,6S)-2-(((1S,2S)-2-methylcyclohexyl)carbamoyl)-6-(4-((N,1,2-trimethyl-1H-benzo[d]imidazole)-5-sulfonamido)phenyl)cyclohexane-1-carboxylic acid] | 2510 nM
7 | O=C(O)[C@@H]1[C@@H](c2ccc(-c3ccccc3COC3CCOCC3)cc2)CCC[C@H]1C(=O)Nc1ccc(C(F)(F)F)cc1F [Example 19, (1R,2R,6S)-2-((2-fluoro-4-(trifluoromethyl)phenyl)carbamoyl)-6-(2′-(((tetrahydro-2H-pyran-4-yl)oxy)methyl)-[1,1′-biphenyl]-4-yl) cyclohexane-1-carboxylic acid] | 316 nM
8 | O=C(O)[C@@H]1[C@@H](c2ccc(C3=COCCC3)cc2)CCC[C@H]1C(=O)Nc1ccc(C(F)(F)F)cc1F [Example 56, (1R,2S,6R)—2-(4-(3,4-dihydro-2H-pyran-5-yl)phenyl)-6-((2-fluoro-4-(trifluoromethyl)phenyl)carbamoyl)cyclohexane-1-carboxylic acid] | 1.58 nM
9 | Cc1nc2cc(S(=O)(=O)N(C)c3ccc([C@H]4CCC[C@@H](C(=O)Nc5c(F)cc(C(C)C)cc5F)[C@@H]4C(=O)O)cc3)ccc2n1C (single isomer, unassigned) [Example 170] | 79.4 nM
10 | COCCOc1cc([C@H]2CCC[C@@H](C(=O)Nc3ccc(C(F)(F)F)cc3F)[C@@H]2C(=O)O)ccc1C(F)(F)F (racemic) [Example 234, rac-(1R,2R,6S)-2-((2-fluoro-4-(trifluoromethyl)phenyl)carbamoyl)-6-(3-(2-methoxyethoxy)-4-(trifluoromethyl)phenyl)cyclohexane-1-carboxylic acid] | 1000 nM
11 | COC(=O)N1CCc2c(cnnc2-c2ccc([C@H]3CCC[C@@H](C(=O)Nc4ccc(C(F)(F)F)cc4F)[C@@H]3C(=O)O)cc2)C1 [Example 40, (1R,2R,6S)-2-((2-fluoro-4-(trifluoromethyl)phenyl)carbamoyl)-6-(4-(6-(methoxycarbonyl)-5,6,7,8-tetrahydropyrido[3,4-d]pyridazin-1-yl)phenyl)cyclohexane-1-carboxylic acid] | 10000 nM
12 | CN(c1ccc([C@H]2CCC[C@@H](C(=O)Nc3ccc(C(F)(F)F)cc3F)[C@@H]2C(=O)O)cc1)S(=O)(=O)c1nnc[nH]1 [Example 96, (1R,2R,6S)-2-((2-fluoro-4-(trifluoromethyl)phenyl)carbamoyl)-6-(4-(N-methyl-4H-1,2,4-triazole-3-sulfonamido)phenyl)cyclohexane-1-carboxylic acid] | 0.501 nM
13 | Cc1nc2cc(S(=O)(=O)N(C)c3ccc([C@H]4CCC[C@@H](C(=O)NC56CC(C(F)(F)F)(C5)C6)[C@@H]4C(=O)O)cc3)ccc2n1C [Example 185, (1R,2R,6S)-2-((3-(trifluoromethyl)bicyclo[1.1.1]pentan-1-yl)carbamoyl)-6-(4-((N,1,2-trimethyl-1H-benzo[d]imidazole)-5-sulfonamido)phenyl)cyclohexane-1-carboxylic acid, formic acid salt] | 63.1 nM
14 | COC(=O)c1sccc1-c1ccc([C@H]2CCC[C@@H](C(=O)Nc3ccc(C(F)(F)F)cc3F)[C@@H]2C(=O)O)cc1 [Example 33, (1R,2R,6S)-2-((2-fluoro-4-(trifluoromethyl)phenyl)carbamoyl)-6-(4-(2-(methoxycarbonyl)thiophen-3-yl)phenyl)cyclohexane-1-carboxylic acid] | 126 nM

test system: SW48 human colorectal cancer cells (MSI-H cancer cells); assay: SW48 cell viability, CellTiter-Glo, 120 hours (Example B); conditions: Homo sapiens, SW48, 120 h, read-out: SW48 pCC50, SW48 cell viability, 120 hours incubation (converted); Table 2
Experimental: SW48 human colorectal cancer cells (MSI-H cancer cells) were obtained from the American Type Culture Collection and maintained in growth medium composed of RPMI-1640 supplemented with 10% fetal bovine serum. Cells were maintained in a humidified 5% CO2 incubator at 37° C. Cell dissociation was conducted using TrypLE Select to detach cells from culture flasks. Following dissociation, cells were centrifuged briefly and resuspended in assay medium RPMI-1640+10% fetal bovine serum. Black 384-well assay plates were prepared from source plates of DMSO and compounds dissolved in DMSO prior to cell dispensation. These source plates were prepared in eleven point, 3-fold serial dilutions from 10 mM stocks stored at 4° C. Compounds and DMSO controls were dispensed into assay plates at 150 nanoliters per well from source plates using Labcyte Echo 555 or Echo 655T dispensers with Column 6 and Column 18 containing DMSO only. Cells were then seeded into prepared assay plates in 50 microliters assay medium at 250 cells per well into Columns 1 thru 17 and Columns 19-24. Assay medium without cells was added to column 18 to serve as a surrogate for 100% cell cytotoxicity. Following incubation for 120 hours in a humidified 5% CO2 incubator at 37° C., cellular ATP concentration of each well was measured and used as a surrogate of cell viability. This was performed by adding 50 microliters of CellTiter-Glo reagent to each well followed by a 10-minute incubation at room temperature. Luminescence was measured on a Synergy Neo or Synergy Neo2 multimode plate reader. Compound cytotoxic response (% C) was normalized to the robust means of column 6 (Control 1, 0% Cytotoxicity) and column 18 (Control 2, 100% Cytotoxicity) and normalized % cytotoxicity (% C) calculated. % C=100−100*((Compound−Control 2)/(Control1−Control2)). These normalized data were then used to determine a 50% cytotoxic response (CC50) using 4-parameter logistic curve model 201 in Activity Base XE:
[formula] • where A=minimum asymptote (% cytotoxicity), B=maximum asymptote (% cytotoxicity), C=Log CC50 (pCC50), D=Hill slope, and x=[inhibitor], (M).

Row | Structure (SMILES) | CC50
15 | Cc1nc2cc(S(=O)(=O)N(C)c3ccc([C@@H]4C[C@@H]5COC[C@@H]5[C@H](C(=O)Nc5ccc(C(F)(F)F)cc5F)[C@H]4C(=O)O)cc3)ccc2n1C (stereo in doubt) [Example 391, rel-(3aR,4R,5R,6S,7aR)-4-((2-fluoro-4-(trifluoromethyl)phenyl)carbamoyl)-6-(4-((N,1,2-trimethyl-1H-benzo[d]imidazole)-5-sulfonamido)phenyl)octahydroisobenzofuran-5-carboxylic acid] | 20000 nM
16 | Cc1nc2cc(S(=O)(=O)N(C)c3ccc([C@H]4C[C@H](N5CCC[C@H](F)C5)C[C@@H](C(=O)Nc5ccc(C(F)(F)F)cc5F)[C@@H]4C(=O)O)cc3)ccc2n1C (stereo in doubt) [Example 351, rel-(1R*,2R*,4S*,6S*)-2-((2-fluoro-4-(trifluoromethyl)phenyl)carbamoyl)-4-((S)-3-fluoropiperidin-1-yl)-6-(4-((N,1,2-trimethyl-1H-benzo[d]imidazole)-5-sulfonamido)phenyl)cyclohexane-1-carboxylic acid] | 10000 nM
17 | Cc1nc2cc(S(=O)(=O)N(C)c3ccc([C@H]4CN(CC(F)(F)F)C[C@@H](C(=O)Nc5ccc(C(F)(F)F)cc5F)[C@@H]4C(=O)O)cc3)ccc2n1C (relative stereo) [Example 358, rel-(3R,4S,5R)-3-((2-fluoro-4-(trifluoromethyl)phenyl)carbamoyl)-1-(2,2,2-trifluoroethyl)-5-(4-((N,1,2-trimethyl-1H-benzo[d]imidazole)-5-sulfonamido)phenyl)piperidine-4-carboxylic acid] | 631 nM
